From patent publication US10342766B2, “6-shogaol derivatives and activities thereof” (North Carolina Agricultural and Technical State University, priority 2017, dated 2019)
Several values for one entry are separate records, joined by “and”; a condition that tells them apart may be missing. Identical values can stand only once.

Legend:
Nrf2 = Nrf2 reporter activity by Tg(gstp1:GFP) fluorescence in transgenic zebrafish embryos; assay type: in vivo; details: 24-hour treatment from 1 dpf to 2 dpf; for Ratio/CTL, Tg(gstp1:GFP) fluorescence signal: 5 μM, olfactory epithelia, relative to vehicle (DMSO = 1.00)
Experimental: Zebrafish AB transgenic strains Tg(gstp1:GFP) were maintained in a Pentair Aquatic Ecosystem (Apopka, Fla., United States of America) fish housing unit with 14 h light/10 h dark cycle (see Tsujita, T., Li, L., Nakajima, H., Iwamoto, N., Nakajima-Takagi, Y., Ohashi, K., Kawakami, K., Kumagai, Y., Freeman, B. A., Yamamoto, M., and Kobayashi, M. (2011) “Nitro-fatty acids and cyclopentenone prostaglandins share strategies to activate the Keap1-Nrf2 system: a study using green fluorescent protein transgenic zebrafish.” Genes Cells 16, 46-57). The fish embryos were maintained at 28.5° C. in 0.3× Danieau's solution (19.3 mM NaCl, 0.23 mM KCl, 0.13 mM MgSO4, 0.2 mM Ca(NO3)2, 1.7 mM HEPES, pH 7.0) containing 30 μg/ml phenylthiourea (PTU) to inhibit pigmentation. Tg(gstp1:GFP) cross with AB wild-type strain fluorescence embryos were used for the experiment. Zebrafish embryos were washed, dechorionated and anaesthetized before observations, and fluorescence imaging for analysis.
Transgenic zebrafish embryos at 1 day-post-fertilization (dpf) were dechorionated and placed in Petri dishes containing different chemicals diluted in 0.3× Danieau's solution containing PTU. The chemical stock was dissolved in DMSO at 5 mM concentration.
An Olympus MVX10 Fluorescence Macroscope (Olympus, Center Valley, Pa., United States of America) equipped with a Hamamatsu C9300-221 high-speed digital CCD camera (Hamamatsu City, Japan) was used for fluorescence microscopy. Tg(gstp1:GFP) fluorescent embryos were anaesthetized in tricaine and imaged at 2 dpf. MetaMorph Basic software (Olympus, Center Valley, Pa., United States of America) was used for image acquisition and analysis.
Quantification of Nrf2 Reporter Activity by Tg(gstp1:
GFP) Fluoresence in Zebrafish Model. The fluorescence intensity of the olfactory neural epithelia was quantitated using MetaMorph Basic software. In brief, GFP expression in the olfactory regions of Tg(gstp1:GFP) embryos treated with various chemicals was measured after 24-hour treatment from 1 dpf to 2 dpf. The GFP induction was detectable by fluorescence signal at the area of the olfactory epithelia in the anterior of the head region, the intensity was measured using an area of a circle of 60 pixel diameter of the fluorescence olfactory epithelia subtracted by a background non-fluorescence area next to the zebrafish embryo. Both the left and right olfactory epithelia were measured to give an average fluorescence value. The values are an average of measurements from at least 10 embryos.

[1] = Biotransformation in zebrafish embryos (cysteine conjugates, LC/MS); assay type: in vivo; details: 5 μM in incubation medium, 8 hpf to 24 hpf
Experimental: Fifty zebrafish embryos at the 8 hour-post-fertilization (hpf) stage were incubated at 28.5° C. in 0.3× Danieau's solution (19.3 mM NaCl, 0.23 mM KCl, 0.13 mM MgSO4, 0.2 mM Ca(NO3)2, 1.7 mM HEPES, pH 7.0) with or without 5 μM 18 and 25-27, respectively. At 24 hpf, embryos were dechorionated manually and the chorions were carefully removed one by one from the culture medium. The zebrafish embryos were harvested and kept at −80° C. till analyzed by LC/MS.
200 μL Sodium acetate buffer solution (pH 5.0) was added to 50 zebrafish embryos. Samples were homogenized for 90 s by an Omni Bead Ruptor Homogenizer (Kennesaw, Ga., United States of America). 10 μL 10% ascorbic acid and 300 μL sodium acetate buffer were added to the homogenates. The mixture was incubated in the presence of β-glucuronidase (250 U) and sulfatase (3 U) at 37° C. for 45 min, and then 600 μL MeOH with 1% acetic acid was added. The resulting mixture was vortexed for 30 s and then centrifuged at 17000 g for 10 min. The supernatant was removed and evaporated under a gentle stream of nitrogen. The residue was reconstituted in 150 μL 90% MeOH with 0.2% acetic acid (AA), and 10 μL was analyzed directly by LC/MS.
(§1) LC/MS analysis was carried out with a Thermo-Finnigan Spectra System, which consisted of an Accela high speed MS pump, an Accela refrigerated autosampler, and an LCQ Fleet ion trap mass detector (Thermo Electron, San Jose, Calif., United States of America) incorporated with an electrospray ionization (ESI) interface. A Gemini-NX C18 column (150 mm×4.6 mm i.d., 5 μm; Phenomenex, Torrance, Calif., United States of America) was used for separation at a flow rate of 0.3 mL/min. The column was eluted with 100% A (5% aqueous methanol with 0.2% formic acid) for 1 min, followed by linear increases in B (95% aqueous methanol with 0.2% formic acid) to 55% from 1 to 4 min, to 85% from 4 to 25 min, then to 100% B from 25 to 30 min, and then with 100% B from 30 to 35 min. The column was then re-equilibrated with 100% A for 5 min. The LC eluent was introduced into the ESI interface. The positive ion polarity mode was set for the ESI source with the voltage on the ESI interface maintained at approximately 4.6 kV. Nitrogen gas was used as the sheath gas and auxiliary gas. Optimized source parameters, including capillary temperature (260° C.), sheath gas flow rate (31 arbitrary units), auxiliary gas flow rate (16 units), tube lens (34 V), and capillary voltage 9 V, were tuned using authentic samples. The collision-induced dissociation (CID) was conducted with an isolation width 2 Da and normalized collision energy of 35 for MS^2. The mass range was measured from 100 to 800 m/z. Data acquisition was performed with Xcalibur version 2.0 (Thermo Electron, San Jose, Calif., United States of America).

[2] = Formation of cysteine conjugates in mice (urine, LC/MS); assay type: in vivo, mouse; details: oral gavage 200 mg/kg, urine collected in 24 h
Experimental: as §1, with “Optimized source parameters, including capillary temperature (260° C.), sheath gas flow rate (31 arbitrary units), auxiliary gas flow rate (16 units), tube lens (34 V), and capillary voltage 9 V, were tuned using authentic samples. The collision-induced dissociation (CID) was conducted with an isolation width 2 Da and normalized collision energy of 35 for MS^2.” left out, “Data acquisition was performed with Xcalibur version 2.0 (Thermo Electron, San Jose, Calif., United States of America).” left out
Enzymatic deconjugation of mouse urine was performed as described previously with slight modifications. […] The resulting suspension was centrifuged at 17,000 g for 5 min, and 10 μL of supernatant was analyzed directly by LC/MS.

SMILES | Ratio/CTL, Tg(gstp1:GFP) fluorescence signal (Nrf2) | further results
CCCCC/C=C/C(=O)CCc1ccc(O)c(OC)c1 [Compound 1, [6]-shogaol, reference compound] | 2.40 and 2.40 ± 0.54 | Ratio/CTL, Tg(gstp1:GFP) fluorescence signal (Nrf2; listed as 6S): 2.40
CCCCCCC/C=C/C(=O)CCc1ccc(O)c(OC)c1 [Compound 2, reference compound] | 1.67 ± 0.55 | Ratio/CTL, Tg(gstp1:GFP) fluorescence signal (Nrf2; listed as 8S): 1.67
CCCCCCCCC/C=C/C(=O)CCc1ccc(O)c(OC)c1 [Compound 3, reference compound] | 1.53 ± 0.53 | Ratio/CTL, Tg(gstp1:GFP) fluorescence signal (Nrf2; listed as 10S): 1.53
CCCCCC=CC(O)CCc1ccc(O)c(OC)c1 (centres unmarked) [Compound 4] | 1.13 and 1.13 ± 0.21 | –
CCCCCCCC(=O)CCc1ccc(O)c(OC)c1 [Compound 5] | 1.27 and 1.27 ± 0.29 | –
CCCCCC(CC(=O)CCc1ccc(O)c(OC)c1)SCC(N)C(=O)O (centres unmarked) [Compound 6] | 1.06 ± 0.20 | –
CCCCCC(CC(=O)CCc1ccc(O)c(OC)c1)SCC(NC(C)=O)C(=O)O (centres unmarked) [Compound 7] | 1.04 ± 0.05 | –
CCCCCC(CC(=O)CCc1ccc(O)c(OC)c1)SC (centres unmarked) [Compound 8] | 1.16 ± 0.47 | –
CCCCCC(CC(=O)CCc1ccc(O)c(OC)c1)OC (centres unmarked) [Compound 10] | 0.96 ± 0.24 | –
CCCCC[C@H](O)CC(=O)CCc1ccc(O)c(OC)c1 [Compound 11, [6]-gingerol, reference compound] | 1.87 and 1.87 ± 0.51 | –
CCCCCCC[C@H](O)CC(=O)CCc1ccc(O)c(OC)c1 [Compound 12, reference compound] | 1.65 and 1.65 ± 0.29 | –
CCCCCCCCC[C@H](O)CC(=O)CCc1ccc(O)c(OC)c1 [Compound 13, reference compound] | 1.29 and 1.29 ± 0.40 | –
CCCCCCCC(O)CCc1ccc(O)c(OC)c1 (centres unmarked) [Compound 14] | 0.96 ± 0.21 | Nrf2 activation in Tg(gstp1:GFP) zebrafish embryos, in words (Nrf2): no effect at all
CCCCCC(CC(O)CCc1ccc(O)c(OC)c1)SCC(N)C(=O)O (centres unmarked) [Compound 15] | 1.08 ± 0.65 | –
CCCCCC(CC(O)CCc1ccc(O)c(OC)c1)SCC(NC(C)=O)C(=O)O (centres unmarked) [Compound 16] | 0.78 ± 0.12 | –
CCCCCC(CC(O)CCc1ccc(O)c(OC)c1)SC (centres unmarked) [Compound 17] | 0.72 ± 0.14 | –
CCCCC/C=C/C(=O)/C=C/c1ccc(O)c(OC)c1 [Compound 18] | 5.67 and 5.67 ± 0.59 | Cysteine conjugates found in zebrafish embryos [1]: conjugate 35 was predominantly present; Cysteine conjugates found in mouse urine [2]: conjugate 35 was predominantly present
CCCCCCCC(=O)/C=C/c1ccc(O)c(OC)c1 [Compound 19] | 3.29 and 3.29 ± 0.35 | –
CCCCC/C=C/C(=O)/C=C/c1cc(O)c(O)c(OC)c1 [Compound 20] | 1.26 and 1.26 ± 0.14 | –
CCCCC/C=C/C(=O)/C=C/c1cc(OC)c(O)c(C(F)(F)F)c1 [Compound 21] | 2.18 and 2.18 ± 0.53 | –
CCCCC/C=C/C(=O)/C=C/c1cccc(C(F)(F)F)c1 [Compound 22] | 1.28 and 1.28 ± 0.10 | –
CCCCC/C=C/C(=O)/C=C/c1cccc(C(F)(F)F)c1F [Compound 23] | 1.63 and 1.63 ± 0.17 | –
CCCCC/C=C/C(=O)/C=C/c1ccccc1C(F)(F)F [Compound 24] | 1.55 and 1.55 ± 0.67 | –
CCCCCCCC(=O)CCc1ccc(O)c(O)c1 [Compound 25] | 4.32 and 4.32 ± 0.50 | Cysteine conjugates found in zebrafish embryos [1]: conjugates 37 and 37b were exclusively identified
C[S+]([O-])CCCCN=C=S (centres unmarked) [SFN, sulforaphane, reference compound] | 2.03 and 2.03 ± 0.49 | –
